Where two headings read alike, the source gives them in different places.
Key:
[1] = test system: K562 cells; test: Cell viability assay (CellTiter-Glo); format: cell-based; settings: Homo sapiens
Description: A concentration–response curve of CBK115334 was generated using the Bravo liquid handling system (serial dilution of a 50 mM stock solution was done in 100% DMSO). A total of 150 nl of the serially diluted solutions and controls (positive control 0.67 mM staurosporine and negative control DMSO) were transferred to a white 384-well assay plate (3570, Corning) by means of acoustic dispensing (Echo 550, Labcyte). A Multidrop reagent dispenser (Thermo Scientific) was used to dispense 30 μl of a K562 cell suspension at a density of 33 × 10^3 cells per ml in supplemented cell culture medium. The cells were incubated at 37 °C in the presence of 5% CO2 for 72 h before addition of 30 μl CellTiter-Glo Luminescent Cell Viability Assay reagent (Promega) using a Multidrop Combi reagent dispenser (Thermo Scientific). The plate was placed on a plate shaker for 15 min prior to detection of the luminescence signal in an Envision plate reader (PerkinElmer). The final highest concentration of CBK115334 in the incubation with cells was 250 μM and the final concentration of the positive control staurosporine was 3 μM. All samples contained 0.5% DMSO. The data were analyzed using microsoft excel and GraphPad Prism 6.

[2] = biological target: T1, TS (Homo sapiens, UniProt P04818); test: Thermal shift in vitro assay on recombinant protein; format: binding; set-up: His6 tag with TEV site (vector-encoded by pNIC28-Bsa4); made in house; host or cells: Rosetta BL21-DE3 Escherichia coli
Description: The assay was performed on the iCycler iQ Real Time PCR Detection System (Bio-Rad), using the 96-well thin-wall PCR plate (Bio-Rad). The experiment was conducted in a buffer containing 20 mM HEPES at pH 7.5 and 150 mM NaCl. A total volume of 25 μl solution containing 0.2 mg ml^−1 protein, compounds and × 5 Sypro Orange dye (Invitrogen) diluted from 5,000 × stock was dispensed into the 96-well plate. The same amount of DMSO was added in the control wells. The plates were sealed with Microseal B adhesive sealer (Bio-Rad) and heated in iCycler from 25 to 80 °C (56 heating cycles in 28 min). Fluorescent filter used for Sypro Orange measurements was λexcitation=492 nm and λemission=610 nm. The calculation of the midpoint of the curves (Tm) was performed using the software package XLfit from IDBS within microsoft excel.
Decitabine at a concentration of 1 mM was incubated with 1 mg ml^−1 of recombinant DCK and 2.5 mM ATP in a buffer of 50 mM Tris at pH 7.5, 150 mM NaCl and 0.5 mM MgCl2 at room temperature for 60 min to generate the corresponding monophosphates. To probe for nucleotide deamination the samples were further treated with 1 mg ml^−1 of recombinant DCTD in the presence of 1 mM ATP and 10 μM ZnCl2 for 20 min at room temperature. After incubation, the samples were heated at 95 °C for 10 min and centrifuged for 10 min at the highest speed at 4 °C using a benchtop centrifuge. The supernatant was tested without dilution in thermal shift in vitro assays and the TS enzyme inhibition assay. The supernatants from samples without nucleoside were used as the treatment controls.
Target sequence in this assay (P04818 whole entry): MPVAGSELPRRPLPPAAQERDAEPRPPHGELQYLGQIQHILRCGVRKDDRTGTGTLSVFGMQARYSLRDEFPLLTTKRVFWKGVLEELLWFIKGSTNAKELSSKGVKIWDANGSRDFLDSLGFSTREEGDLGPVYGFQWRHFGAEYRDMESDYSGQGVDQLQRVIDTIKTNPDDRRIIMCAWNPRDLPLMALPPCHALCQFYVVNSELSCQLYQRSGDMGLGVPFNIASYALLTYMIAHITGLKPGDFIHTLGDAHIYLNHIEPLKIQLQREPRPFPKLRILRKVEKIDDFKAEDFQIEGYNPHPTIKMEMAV

[3] = biological target: T1, TS; test: Surface plasmon resonance; format: binding; set-up: His6 tag with TEV site (vector-encoded by pNIC28-Bsa4); made in house; host or cells: Rosetta BL21-DE3 Escherichia coli; settings: 200 μM dUMP, 20 nM to 10 μM compound; signal does not saturate
Description: A concentration series (20 nM to 10 μM) of CBK115334 was injected over the prepared surface for 60 s and allowed to dissociate for 60 s with a flow rate of 70 μl min^−1 at 25 °C. The assay buffer was 20 mM HEPES, 150 mM NaCl, pH 7.5 and 0.005% Tween-20 supplemented with 1% DMSO and 200 μM dUMP. Response data was processed using the BIAevaluation software. Responses were double referenced and solvent-corrected. The data sets were fitted to 1:1 steady-state model for determination of binding constants.
Target sequence in this assay (P04818 whole entry): as above

[4] = biological target: T1, TS; test: Western blot ITDRF CETSA of decitabine with or without DCK inhibitor DI-82, K562 cells; format: cell-based; set-up: screening in live, non-engineered cells expressing thymidylate synthase; endogenous in cells; host or cells: K562 (human myelogenous leukemia) cells
Description: K562 cells were treated with each respective compound concentrations and one vehicle as control in 100 μl aliquots in 0.2 ml tubes for 2 h in an incubator at 37 °C and 5% CO2. The cell aliquots were heated at 50 °C and analyzed with western blot following the procedure described above.
For the decitabine metabolism, decitabine was serially diluted to generate an 11 point dose–response curve and an […] experiment was performed as described above in absence and presence of 200 μM of the DCK inhibitor DI-82 (referred to as 12R in the main text of the original publication and DI-82 in the Supplementary Material)[34].
NuPage Novex Bis-Tris 4–12% polyacrylamide gels with NuPAGE MES SDS running buffer (Life Technologies) were used for separation of proteins in the samples. Proteins were transferred to nitrocellulose membranes using the iBlot2 blotting system (Life Technologies). Primary antibodies anti-TS (D5B3) XP (Cell Signaling), anti-dCK (sc-393099), anti-β-actin (sc-69879); secondary goat anti-mouse HRP-IgG (sc-2055) and bovine anti-rabbit HRP-IgG (sc-2374) antibodies (Santa Cruz Biotechnology, Santa Cruz, CA, USA) were used for immunoblotting. […] Chemiluminescence intensities were detected and quantified using a ChemiDoc XRS+ imaging system (Bio-Rad) with Image Lab software (Bio-Rad).
Target sequence in this assay (P04818 2-313 limits assumed): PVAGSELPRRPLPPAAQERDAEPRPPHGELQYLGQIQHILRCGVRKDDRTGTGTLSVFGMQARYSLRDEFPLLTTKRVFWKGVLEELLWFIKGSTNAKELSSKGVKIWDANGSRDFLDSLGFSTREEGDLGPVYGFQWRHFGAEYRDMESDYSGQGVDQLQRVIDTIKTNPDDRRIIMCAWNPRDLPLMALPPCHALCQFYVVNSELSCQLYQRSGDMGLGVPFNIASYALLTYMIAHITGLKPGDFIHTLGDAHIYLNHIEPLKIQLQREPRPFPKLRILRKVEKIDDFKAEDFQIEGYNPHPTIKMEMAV

| SMILES | IC50 ([1]; 72 hours incubation, read-out: IC50 cell viability) [µM] | IC50 ([1]; read-out: IC50 cell proliferation) [µM] | ΔTm at 25 µM ([2]; 25 μM compound, 500 μM dUMP, read-out: thermal shift of isolated recombinant human TS) [°C] | ΔTm at 100 µM ([2]; 100 μM compound, 500 μM dUMP, read-out: thermal shift of isolated recombinant human TS) [°C] | binding to TS by surface plasmon resonance (steady state affinity) [3] | stabilization of recombinant TS ([2]; 1 mM decitabine after treatment with recombinant DCK) | stabilization of recombinant TS in thermal shift assay ([2]; nucleoside without enzyme treatment) | ΔTm at 1000 µM ([2]; read-out: thermal shift of recombinant TS) [°C] | stabilization of TS (ITDRFCETSA) ([4]; in absence of DI-82, K562 cells) | ability to bind TS (ITDRFCETSA) ([4]; in presence of 200 μM DI-82, K562 cells) |
| --- | --- | --- | --- | --- | --- | --- | --- | --- | --- | --- |
| Cc1cc(O)nc2sc(C(=O)c3ccccc3)c(N)c12 [CBK115334, 3-amino-2-benzoyl-4-methylthieno(2,3-b)pyridin-6-ol] | 88 ± 15 | < 100 | 2.6 | 5.2 | low μM range | – | – | – | – | – |
| Nc1ncn([C@H]2C[C@H](O)[C@@H](CO)O2)c(=O)n1 [decitabine, 5-Aza-deoxycytidine] | – | – | – | – | – | only a marginal stabilization | did not stabilize | ~10 | Dose-dependent stabilization | completely blunted |
